Reference: ChEMBL document CHEMBL1201862, “PubChem BioAssay data set” (2004)
Activity calls are given as the source filed them.

How the values were obtained:
[1] = HEK-293T viability loss after treatment – luminescence, T-cell screen hits, cytotoxicity control for TCR NF-kB inhibitor project, dose response (AID 489026); assay type: functional, cell-based;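 further: cells exposed to compound about 14 hours before the viability readout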
[2] = molecular target: Peroxisome proliferator-activated receptor gamma/Nuclear receptor coactivator 1 (Homo sapiens, UniProt P37231); assay: TR-FRET dose response biochemical High Throughput Screening assay for agonists of the steroid receptor coactivator 1 (SRC-1) recruitment by the peroxisome proliferator-activated receptor gamma (PPAR gamma): non-selective agonists. [Related pubchem assays (depositor defined):AID1300, AID1808, AID504735, AID631]; assay type: protein assay
[3] = molecular target: Peroxisome proliferator-activated receptor gamma/Nuclear receptor coactivator 3 (Homo sapiens, UniProt P37231); assay: TR-FRET dose response biochemical High Throughput Screening assay for agonists of the steroid receptor coactivator 3 (SRC-3) recruitment by the peroxisome proliferator-activated receptor gamma (PPAR gamma): non-selective agonists. [Related pubchem assays: 1301 (Confirmation screen.), 1048 (Primary screen.)]; assay type: functional
Chain of Peroxisome proliferator-activated receptor gamma/Nuclear receptor coactivator 3 (P37231 whole entry): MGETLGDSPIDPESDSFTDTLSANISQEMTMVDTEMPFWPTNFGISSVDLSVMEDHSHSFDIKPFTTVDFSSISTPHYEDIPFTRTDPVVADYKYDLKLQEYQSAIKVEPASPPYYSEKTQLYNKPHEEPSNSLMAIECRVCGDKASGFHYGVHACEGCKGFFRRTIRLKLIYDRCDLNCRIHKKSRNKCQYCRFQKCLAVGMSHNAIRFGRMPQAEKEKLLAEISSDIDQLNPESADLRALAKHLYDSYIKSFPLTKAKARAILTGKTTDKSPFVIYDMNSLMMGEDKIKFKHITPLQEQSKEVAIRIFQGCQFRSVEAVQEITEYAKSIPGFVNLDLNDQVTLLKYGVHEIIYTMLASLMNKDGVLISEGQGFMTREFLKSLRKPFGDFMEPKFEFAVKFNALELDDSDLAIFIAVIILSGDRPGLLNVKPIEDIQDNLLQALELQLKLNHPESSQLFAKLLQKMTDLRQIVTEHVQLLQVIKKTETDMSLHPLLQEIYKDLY
Chain of Peroxisome proliferator-activated receptor gamma/Nuclear receptor coactivator 3 (Q9Y6Q9 whole entry, further chain): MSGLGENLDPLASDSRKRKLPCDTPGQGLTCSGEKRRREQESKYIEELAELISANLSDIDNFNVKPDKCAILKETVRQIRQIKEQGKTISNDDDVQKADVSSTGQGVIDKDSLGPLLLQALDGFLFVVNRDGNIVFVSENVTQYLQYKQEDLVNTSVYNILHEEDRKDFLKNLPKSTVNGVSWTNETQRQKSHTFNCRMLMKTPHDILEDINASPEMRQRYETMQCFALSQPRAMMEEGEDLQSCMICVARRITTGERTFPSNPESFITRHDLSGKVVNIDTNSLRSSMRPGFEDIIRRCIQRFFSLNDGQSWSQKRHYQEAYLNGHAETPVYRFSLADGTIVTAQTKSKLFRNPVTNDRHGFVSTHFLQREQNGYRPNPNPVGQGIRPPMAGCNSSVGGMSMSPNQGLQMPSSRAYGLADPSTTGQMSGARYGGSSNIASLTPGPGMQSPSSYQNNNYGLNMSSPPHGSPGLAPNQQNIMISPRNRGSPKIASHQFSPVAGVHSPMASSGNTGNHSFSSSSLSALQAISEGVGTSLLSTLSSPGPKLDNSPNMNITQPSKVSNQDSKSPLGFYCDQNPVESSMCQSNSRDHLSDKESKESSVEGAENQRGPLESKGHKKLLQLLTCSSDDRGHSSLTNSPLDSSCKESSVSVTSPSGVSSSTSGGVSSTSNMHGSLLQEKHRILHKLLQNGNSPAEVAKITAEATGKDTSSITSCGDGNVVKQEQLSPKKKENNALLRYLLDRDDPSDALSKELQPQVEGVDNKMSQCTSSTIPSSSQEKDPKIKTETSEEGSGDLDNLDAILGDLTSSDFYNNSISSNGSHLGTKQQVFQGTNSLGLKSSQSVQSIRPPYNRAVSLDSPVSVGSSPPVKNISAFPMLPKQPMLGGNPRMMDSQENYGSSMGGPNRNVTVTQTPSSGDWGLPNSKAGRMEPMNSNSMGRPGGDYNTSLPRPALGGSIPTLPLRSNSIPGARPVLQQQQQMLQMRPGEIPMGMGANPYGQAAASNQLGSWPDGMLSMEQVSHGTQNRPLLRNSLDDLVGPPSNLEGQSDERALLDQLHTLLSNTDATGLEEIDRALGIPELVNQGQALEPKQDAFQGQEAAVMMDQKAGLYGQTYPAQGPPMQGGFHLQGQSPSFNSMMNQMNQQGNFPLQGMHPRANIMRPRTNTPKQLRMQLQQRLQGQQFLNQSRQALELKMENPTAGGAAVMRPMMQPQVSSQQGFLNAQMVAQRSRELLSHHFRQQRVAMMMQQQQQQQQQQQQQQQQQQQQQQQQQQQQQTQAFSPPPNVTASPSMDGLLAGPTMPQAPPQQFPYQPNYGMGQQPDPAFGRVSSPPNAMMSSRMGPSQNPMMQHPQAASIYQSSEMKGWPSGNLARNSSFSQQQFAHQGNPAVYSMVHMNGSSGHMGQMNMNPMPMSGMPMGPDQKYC

[4] = molecular target: Peroxisome proliferator-activated receptor gamma/Nuclear receptor coactivator 2 (Homo sapiens, UniProt P37231); assay: TR-FRET dose response biochemical High Throughput Screening assay for agonists of the steroid receptor coactivator 2 (SRC-2) recruitment by the peroxisome proliferator-activated receptor gamma (PPAR gamma): non-selective agonists. [Related pubchem assays: 1297, 1032 ]; assay type: functional
Chain of Peroxisome proliferator-activated receptor gamma/Nuclear receptor coactivator 2 (P37231 whole entry): as the sequence (P37231 whole entry) above
Chain of Peroxisome proliferator-activated receptor gamma/Nuclear receptor coactivator 2 (Q15596 whole entry, further chain): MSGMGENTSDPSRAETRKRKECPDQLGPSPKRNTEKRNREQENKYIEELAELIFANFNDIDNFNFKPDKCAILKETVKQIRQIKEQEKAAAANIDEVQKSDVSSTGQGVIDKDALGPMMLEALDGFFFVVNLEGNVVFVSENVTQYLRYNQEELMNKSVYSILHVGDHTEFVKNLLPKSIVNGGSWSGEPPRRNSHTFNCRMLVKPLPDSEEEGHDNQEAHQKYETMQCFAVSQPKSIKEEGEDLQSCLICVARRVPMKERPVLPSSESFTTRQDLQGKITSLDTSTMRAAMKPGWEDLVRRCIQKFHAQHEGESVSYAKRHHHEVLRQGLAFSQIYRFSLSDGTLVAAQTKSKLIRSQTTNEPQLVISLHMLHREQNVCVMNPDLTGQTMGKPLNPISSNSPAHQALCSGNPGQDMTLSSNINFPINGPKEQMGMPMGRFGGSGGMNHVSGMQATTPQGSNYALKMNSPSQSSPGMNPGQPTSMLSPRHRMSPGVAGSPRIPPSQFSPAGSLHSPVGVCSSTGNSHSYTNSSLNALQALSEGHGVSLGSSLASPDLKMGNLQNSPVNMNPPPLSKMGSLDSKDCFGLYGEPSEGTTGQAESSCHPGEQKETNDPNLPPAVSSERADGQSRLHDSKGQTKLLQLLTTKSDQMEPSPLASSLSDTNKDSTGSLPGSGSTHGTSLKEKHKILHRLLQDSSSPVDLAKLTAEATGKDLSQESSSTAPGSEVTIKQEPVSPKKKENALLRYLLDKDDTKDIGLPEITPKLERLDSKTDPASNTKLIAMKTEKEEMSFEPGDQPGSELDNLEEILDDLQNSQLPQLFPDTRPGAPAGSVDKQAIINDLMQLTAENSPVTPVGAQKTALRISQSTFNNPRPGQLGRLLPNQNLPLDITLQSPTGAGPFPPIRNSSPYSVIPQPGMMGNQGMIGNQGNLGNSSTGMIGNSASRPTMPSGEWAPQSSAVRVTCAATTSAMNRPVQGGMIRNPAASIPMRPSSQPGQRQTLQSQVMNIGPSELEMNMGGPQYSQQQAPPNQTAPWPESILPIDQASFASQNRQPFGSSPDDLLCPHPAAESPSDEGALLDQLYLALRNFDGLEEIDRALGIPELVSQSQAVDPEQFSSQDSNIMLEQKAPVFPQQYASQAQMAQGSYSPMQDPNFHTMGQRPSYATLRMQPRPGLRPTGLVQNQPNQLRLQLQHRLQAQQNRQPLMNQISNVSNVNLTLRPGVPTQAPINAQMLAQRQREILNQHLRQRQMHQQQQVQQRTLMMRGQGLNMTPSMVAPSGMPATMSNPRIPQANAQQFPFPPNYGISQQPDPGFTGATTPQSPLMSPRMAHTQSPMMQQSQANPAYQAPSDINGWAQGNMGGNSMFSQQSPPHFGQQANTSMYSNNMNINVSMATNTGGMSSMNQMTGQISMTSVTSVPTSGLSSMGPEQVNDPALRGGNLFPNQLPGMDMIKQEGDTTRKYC

cells [5] = assay type: functional, cell-based
[6] = Trypanosoma cruzi growth suppression in host cells – NIH3T3 host cells, beta-gal luminescence, confirmation (AID 2044); assay type: functional, cell-based;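 further: intracellular parasites grown in NIH/3T3 mouse fibroblasts as host cells; luminescent beta-galactosidase reporter signal from transgenic T. cruzi replicating inside host cells; inhibitors lower the luminescence signal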
cells [7] = assay type: functional, cell-based; remark: listed apart in the source
[8] = NIH3T3 cell viability loss – ATP luminescence, mouse fibroblasts, counter-screen, dose response (AID 2010); assay type: functional, cell-based;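 further: cells exposed to compound for about 90 hours before reading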
[9] = Luminescence Cell-Based Dose Retest to Confirm Inhibitors of Cancer Stem Cells. [Related pubchem assays (depositor defined):AID2717, AID2721]; assay type: functional; settings: Homo sapiens
[10] = molecular target: T1, Microphthalmia-associated transcription factor (Homo sapiens, UniProt O75030); assay: reducers of TRPM1 reporter luminescence, concentration series – cell-based, SK-MEL-5, cherry-picked, set 3, MITF inhibitor project, dose response (AID 493073); assay type: functional;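 further: SK-MEL-5 melanoma cells with luciferase driven by the MITF target TRPM1 promoter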
T1 sequence (O75030 whole entry): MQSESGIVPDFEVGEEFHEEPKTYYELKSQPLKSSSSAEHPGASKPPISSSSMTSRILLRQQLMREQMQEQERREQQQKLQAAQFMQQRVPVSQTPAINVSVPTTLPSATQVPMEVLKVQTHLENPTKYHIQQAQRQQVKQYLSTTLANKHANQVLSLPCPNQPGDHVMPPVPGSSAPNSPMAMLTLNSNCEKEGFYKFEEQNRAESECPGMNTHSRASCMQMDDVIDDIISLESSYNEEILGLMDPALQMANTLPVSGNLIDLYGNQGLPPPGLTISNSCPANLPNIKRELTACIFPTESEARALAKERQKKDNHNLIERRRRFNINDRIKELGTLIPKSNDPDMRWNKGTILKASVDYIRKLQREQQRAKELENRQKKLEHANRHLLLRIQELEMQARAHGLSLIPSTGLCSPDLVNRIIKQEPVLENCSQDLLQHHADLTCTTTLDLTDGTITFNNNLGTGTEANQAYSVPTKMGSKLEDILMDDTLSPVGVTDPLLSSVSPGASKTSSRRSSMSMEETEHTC

INS1 = assay: INS-1E survival protection against cytokine death – cell-based, luminescence, retest, dose response (AID 449756); assay type: functional; settings: Rattus norvegicus;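 further: cell death triggered by IL-1 beta plus TNF-alpha plus IFN-gamma mixture; protective hits raise ATP signal compared with cytokine alone wells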
[11] = molecular target: T2, Short transient receptor potential channel 4 (Mus musculus, UniProt Q9QUQ5); assay: block of DAMGO-driven TRPC4 calcium entry – cell-based, HEK293 TRPC4/mu-opioid, Fluo-4 calcium, dose response (AID 434942); assay type: functional;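 further: potency of inhibitors blocking the TRPC4 calcium response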
T2 sequence (Q9QUQ5 whole entry): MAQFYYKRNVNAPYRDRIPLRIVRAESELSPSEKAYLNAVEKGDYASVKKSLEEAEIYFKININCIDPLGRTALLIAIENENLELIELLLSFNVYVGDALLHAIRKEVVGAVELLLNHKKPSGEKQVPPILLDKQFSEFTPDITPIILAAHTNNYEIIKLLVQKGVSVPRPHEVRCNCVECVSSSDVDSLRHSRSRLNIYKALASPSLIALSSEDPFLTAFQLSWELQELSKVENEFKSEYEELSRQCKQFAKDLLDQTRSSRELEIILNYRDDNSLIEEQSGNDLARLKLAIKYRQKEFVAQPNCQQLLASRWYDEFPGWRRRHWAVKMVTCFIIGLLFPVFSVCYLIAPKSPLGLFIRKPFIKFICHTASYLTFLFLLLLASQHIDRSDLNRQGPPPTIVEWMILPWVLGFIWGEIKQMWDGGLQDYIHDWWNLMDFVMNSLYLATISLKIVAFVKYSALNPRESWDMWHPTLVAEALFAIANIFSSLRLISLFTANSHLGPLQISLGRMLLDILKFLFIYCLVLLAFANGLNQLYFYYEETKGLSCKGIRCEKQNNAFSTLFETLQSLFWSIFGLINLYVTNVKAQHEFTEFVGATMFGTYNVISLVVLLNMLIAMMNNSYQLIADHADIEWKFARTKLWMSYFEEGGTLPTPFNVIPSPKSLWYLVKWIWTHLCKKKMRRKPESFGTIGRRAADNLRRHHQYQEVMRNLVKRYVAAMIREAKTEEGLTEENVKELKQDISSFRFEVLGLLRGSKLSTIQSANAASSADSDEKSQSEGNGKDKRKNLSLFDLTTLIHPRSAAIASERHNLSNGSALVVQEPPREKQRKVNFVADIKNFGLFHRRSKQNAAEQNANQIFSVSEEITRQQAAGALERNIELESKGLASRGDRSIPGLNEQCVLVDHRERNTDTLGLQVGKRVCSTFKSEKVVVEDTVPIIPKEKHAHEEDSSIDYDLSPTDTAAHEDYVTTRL

[12] = luciferase reporter signal suppression in cells – H4 neuroglioma cells, luminescence, dose response (AID 1990); assay type: functional, cell-based
[13] = Luminescence Cell-Based Dose Response HTS to Identify Inhibitors of 5'UTR Stem-Loop Driven Prion Protein mRNA Translation in H4 Neuroglioblastoma Cells. [Related pubchem assays: 1827 (Project Summary), 1813 (Primary HTS)]; assay type: functional
[14] = alpha-synuclein stem-loop luciferase translation blockers – H4 neuroglioma cells, luminescence, confirmation (AID 1988); assay type: functional, cell-based
[15] = tested on: Streptococcus sp. 'group A'; assay: Streptococcus pyogenes SK(-)GAS viability under kanamycin – luminescence, BacTiterGlo, confirmation, counter-screen for streptokinase expression inhibitor project, dose response (AID 1900); assay type: functional, organism-based
Streptokinase A = molecular target: T3, Streptokinase A (Streptococcus pyogenes serotype M1, UniProt P10520); assay: viability-normalized secreted streptokinase activity reduction – plasminogen activation absorbance, OD405, dose response (AID 1914); assay type: functional, Streptococcus pyogenes M1 GAS;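 further: secreted streptokinase activity via plasminogen activation per viability signal from cell pellet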
T3 sequence (P10520 whole entry): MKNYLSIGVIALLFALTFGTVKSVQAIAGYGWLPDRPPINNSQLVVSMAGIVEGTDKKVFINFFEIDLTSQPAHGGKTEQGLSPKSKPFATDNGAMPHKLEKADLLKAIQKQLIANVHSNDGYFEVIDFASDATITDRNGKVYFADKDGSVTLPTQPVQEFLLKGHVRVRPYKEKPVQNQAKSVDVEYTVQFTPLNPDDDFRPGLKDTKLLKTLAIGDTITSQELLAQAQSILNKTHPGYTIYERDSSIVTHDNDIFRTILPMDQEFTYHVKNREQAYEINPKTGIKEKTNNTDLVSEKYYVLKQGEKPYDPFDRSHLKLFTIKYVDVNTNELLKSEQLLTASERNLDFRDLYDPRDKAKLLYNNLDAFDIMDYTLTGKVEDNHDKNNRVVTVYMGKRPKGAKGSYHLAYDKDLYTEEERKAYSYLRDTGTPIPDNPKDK

Streptococcus = assay: GAS UMAA2166 growth inhibition – luminescence, BacTiterGlo, counter-screen for streptokinase expression inhibitor project, dose response (AID 1915); assay type: functional, organism-based;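 further: potency for reduction of bacterial viability or growth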
SUMO-activating enzyme [16] = molecular target: T4, SUMO-activating enzyme (Homo sapiens, UniProt Q9UBT2); assay: blockers of UBC9-mediated SUMO conjugation – biochemical, AlphaScreen, SUMOylation inhibitor project, confirmation (AID 2018); assay type: functional
T4 sequence (Q9UBE0 whole entry): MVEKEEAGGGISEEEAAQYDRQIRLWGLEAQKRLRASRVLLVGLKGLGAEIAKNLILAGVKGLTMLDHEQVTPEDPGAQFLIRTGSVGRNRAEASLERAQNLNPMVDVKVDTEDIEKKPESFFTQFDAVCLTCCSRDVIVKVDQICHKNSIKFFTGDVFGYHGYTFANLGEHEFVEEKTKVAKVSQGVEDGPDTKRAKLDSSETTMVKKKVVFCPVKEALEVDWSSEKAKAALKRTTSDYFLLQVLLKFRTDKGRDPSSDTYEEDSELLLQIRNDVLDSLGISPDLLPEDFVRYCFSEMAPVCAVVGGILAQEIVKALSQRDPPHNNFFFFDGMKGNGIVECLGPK
T4 sequence (Q9UBT2 whole entry): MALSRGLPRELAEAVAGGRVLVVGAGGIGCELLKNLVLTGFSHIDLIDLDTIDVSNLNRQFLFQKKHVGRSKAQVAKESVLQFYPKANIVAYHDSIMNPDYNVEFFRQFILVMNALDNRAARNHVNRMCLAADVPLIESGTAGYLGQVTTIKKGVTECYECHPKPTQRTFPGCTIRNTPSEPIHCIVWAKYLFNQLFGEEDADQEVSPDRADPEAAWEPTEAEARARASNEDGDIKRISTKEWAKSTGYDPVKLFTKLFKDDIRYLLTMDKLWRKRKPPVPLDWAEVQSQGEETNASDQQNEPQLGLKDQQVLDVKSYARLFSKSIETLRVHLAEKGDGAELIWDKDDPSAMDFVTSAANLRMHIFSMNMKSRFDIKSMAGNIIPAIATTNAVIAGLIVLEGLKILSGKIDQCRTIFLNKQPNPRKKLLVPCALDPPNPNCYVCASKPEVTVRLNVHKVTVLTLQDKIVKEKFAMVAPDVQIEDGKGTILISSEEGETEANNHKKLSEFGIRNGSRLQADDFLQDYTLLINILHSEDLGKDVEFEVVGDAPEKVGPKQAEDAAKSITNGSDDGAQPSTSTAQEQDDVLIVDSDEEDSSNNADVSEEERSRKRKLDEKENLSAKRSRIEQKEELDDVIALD

SUMO-activating enzyme [17] = molecular target: T4, SUMO-activating enzyme; assay: blockers of SAE1/SAE2–UBC9 SUMO transfer – biochemical, HTRF, uHTS, primary screen (AID 2006); assay type: protein-complex assay
BJ [18] = assay: BJ-TERT fibroblast viability loss – cell-based, RAS-independent, luminescence, dose response (AID 1933); assay type: functional; settings: Homo sapiens
BJ [19] = assay: cells; assay type: functional, cell-based; settings: Homo sapiens
BJ [20] = assay: BJ-TERT-LT-ST fibroblast viability loss – cell-based, RAS-independent, luminescence, dose response (AID 1935); assay type: functional; settings: Homo sapiens;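 further: BJ fibroblasts immortalized with TERT plus LT and ST oncogenes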
[21] = DRD fibroblast viability loss – cell-based, non-viral oncogenic, luminescence, dose response (AID 1934); assay type: functional; settings: Homo sapiens
[22] = NIH-3T3 fibroblast cytotoxicity, dose response, cytotoxicity control, cell-based, fluorescence, Alamar Blue, secondary assay (AID 2327); assay type: functional;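 further: NIH-3T3 mouse fibroblasts cultured with fluconazole at 8 µg/mL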
[23] = fluconazole-exposed Candida albicans growth modulators – fluorescence, retest, confirmation (AID 2467); assay type: functional, cell-based
[24] = molecular target: T2, Short transient receptor potential channel 4; assay: calcium entry via TRPC4 opening agents – cell-based, HEK293 TRPC4/mu-opioid, Fluo-4 calcium, dose response (AID 434937); assay type: functional
[25] = viability of PTEN-deleted HCT116 cells – cell-based, HCT116 PTEN knockout, dose response (AID 1047); assay type: functional;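 further: HCT116 colon tumor cells with PTEN knocked out; cells exposed to compound for 60 hours before readout; potency for loss of cell viability measured by luminescence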
[26] = viability of HCT116 lacking mutant beta-catenin – cell-based, human colon tumor, dose response (AID 1045); assay type: functional;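 further: HCT116 colon tumor cells with beta catenin knocked out; cells exposed to compound for 60 hours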
Paired box protein Pax-8 = Paired box protein Pax-8 (Homo sapiens, UniProt Q06710); assay: PAX8 transcriptional activity inhibition in RMG-I – RMG-I cells, luciferase, cherry-pick, dose response (AID 687027); assay type: functional, cell-based;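 further: luciferase reporter driven by Pax8 target thyroperoxidase promoter measured by SteadyGlo luminescence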
Melanocortin receptor 4 = Melanocortin receptor 4 (Homo sapiens, UniProt P32245); assay: inhibitors of MC4R cAMP signaling – cell-based, TR-FRET, biased antagonists, dose response (AID 602298); assay type: functional;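 further: antagonist potency against agonist-stimulated cAMP production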
[27] = cAMP pathway inhibition in counterscreen cell line – TR-FRET cAMP detection, counter-screen for MC4R biased antagonist project, dose response (AID 602305); assay type: functional, cell-based;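 further: U2OS cells stimulated with forskolin near its EC80 as the cAMP inducer; potency is for inhibition of forskolin-stimulated cAMP signaling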

Cc1cc(-c2ccc(C(C)C)c(S(=O)(=O)N3CCN(c4ccccc4)CC3)c2)on1
IC50 [1]: > 80 µM (inactive)

C=CCSC1=Nc2cc(OC)c(OC)cc2C2=NC(=O)CN12
EC50 [2]: > 79.4 µM (inactive)
EC50 [3]: > 79.4 µM (not active)
EC50 [4]: > 79.4 µM (not active)

O=C(N/N=C\c1cc(Br)ccc1O)c1ccc(S(=O)(=O)N2CCCCC2)cc1
EC50 (cells [5]): > 350 µM (not active)
EC50 [6]: 0.758 µM (active)
EC50 (cells [7]): > 350 µM (not active)
EC50 [8]: > 60 µM (not active)
AC50 [9]: 1.8 µM (active)
AC50 [10]: 1.78 µM (active)
AC50 (INS1): 0.809 µM (active)

COCC(C)NC(C(=O)Nc1ccc(Cl)c([N+](=O)[O-])c1)c1ccccc1 (configuration not stated)
EC50 [11]: 5.96 µM (active)

CC1CCN(c2c(NCc3ccc(C(=O)N4CCc5ccccc54)cc3)c(=O)c2=O)CC1
EC50 [12]: > 60 µM (not active)
EC50 [13]: 12.3 µM (active)
EC50 [14]: 8.86 µM (active)
IC50 [1]: > 80 µM (inactive)

CSc1c(SCc2ccccc2)cnn(Cc2ccccc2)c1=O
EC50 [2]: 2.68 µM (active)
EC50 [15]: 3.38 µM (active)
EC50 [3]: > 79.4 µM (not active)
EC50 (Streptokinase A): > 150 µM (not active)
EC50 [4]: 8.09 µM (active)
EC50 (Streptococcus): 34.3 µM (active)

O=C(N/N=C/c1ccc(Cl)cc1)c1nc(O)c2cc([N+](=O)[O-])ccc2n1
IC50 (SUMO-activating enzyme [16]): 21.5 µM (active)
IC50 (SUMO-activating enzyme [17]): 22 µM (active)

COc1ccc(OC)c(Nc2cc(C)nc3ccc(C)cc23)c1
EC50 [12]: > 120 µM (not active)
EC50 (BJ [18]): 11.7 µM (active)
EC50 [13]: 44.2 µM (active)
EC50 [14]: 6.31 µM (active)
EC50 (BJ [19]): 12.3 µM (active)
EC50 (BJ [20]): 18.8 µM (active)
EC50 [21]: 9.69 µM (active)
EC50 [11]: 5.96 µM (active)

Cn1c(=S)[nH]c2scc(-c3cccs3)c2c1=O
EC50 [22]: 145 µM (inconclusive)
EC50 [2]: 10.5 µM (inactive)
EC50 [3]: > 79.4 µM (not active)
EC50 [23]: 0.361 µM (active)
EC50 [4]: 11.4 µM (not active)

COc1ccc2nc(NS(=O)(=O)c3ccc(NC(C)=O)cc3)sc2c1
EC50 [11]: 3.35 µM (active)
EC50 [24]: 3.76 µM (active)

COc1cc(-n2c(=S)[nH]c3ccc(C)cc3c2=O)c(Cl)cc1Cl
EC50 [2]: > 79.4 µM (inactive)
EC50 [3]: > 79.4 µM (not active)
EC50 [4]: > 79.4 µM (not active)

CCCc1cc(O)nc(SCC(=O)Nc2sc3c(c2C#N)CCCC3)n1
EC50 [11]: 4.73 µM (active)

Cc1cccc(-c2nnc(S)n2/N=C/C=C/c2ccco2)c1
IC50 (SUMO-activating enzyme [17]): > 100 µM (inactive)

Cc1cc(NCc2ccccc2)nc(N2CCOCC2)n1
EC50 [11]: 4.73 µM (active)

CSc1oc(-c2ccccc2)nc1S(=O)(=O)c1ccc(C)cc1
EC50 [2]: > 79.4 µM (inactive)
EC50 [3]: > 79.4 µM (not active)
EC50 [4]: > 79.4 µM (not active)

Cc1ccc(NC(=O)/C=C/c2ccc([N+](=O)[O-])s2)c(C)c1
EC50 [25]: 1.03 µM (active)
EC50 [26]: 1 µM (active)
AC50 [9]: 1.3 µM (active)
AC50 [10]: 4.64 µM (active)
AC50 (INS1): 4.69 µM (active)
AC50 (Paired box protein Pax-8): 3.16 µM (active)

CCOC(=O)C(C)Sc1nc2c(c(=O)[nH]c(=O)n2C)n1Cc1ccc(Cl)cc1 (configuration not stated)
EC50 [11]: 0.749 µM (active)

O=C(COC(=O)C(Cc1ccccc1)NC(=O)c1cccs1)NCc1ccccc1 (configuration not stated)
IC50 (Melanocortin receptor 4): 38.6 µM (inactive)
IC50 [27]: > 64.6 µM (inactive)
